Test results: article PMC7248782, “Synergistic Anti Leukemia Effect of a Novel Hsp90 and a Pan Cyclin Dependent Kinase Inhibitors” (Molecules, 2020)

Biological target: T1, Hsp90α (Homo sapiens, UniProt P07900)
T1 construct: gene HSP90AA1; recombinant human Hsp90α (SPP-776)
Assay: SPR (Biacore […], immobilized Hsp90α)
Format: binding

- Kd: 51 ± 2.9 nM
Structure (SMILES): NS(=O)(=O)c1ccc(CCn2c(=S)[nH]c3ccccc3c2=O)cc1 [compound 1, 4-(2-(4-Oxo-2-thioxo-1,4-dihydroquinazolin-3(2H)-yl)ethyl)benzene sulfonamide]
